Test results published in the NIST ThermoML archive (doi:10.1007/s10765-005-8590-7).

Assay: xn = mol fraction of the nth substance listed
Details: Fluid (supercritical or subcritical phases), Constant-volume piezometry

N [ammonia] + O
Details	mass density [kg/m3]
275.15 K, 5862 kPa, x1 = 0.0955	967.89
275.15 K, 7362.2 kPa, x1 = 0.0513	984.54
275.15 K, 8702.8 kPa, x1 = 0.064	979.9
275.16 K, 16098 kPa, x1 = 0.047	989.39
275.23 K, 5541.3 kPa, x1 = 0.0644	979.5
276.15 K, 5893.5 kPa, x1 = 0.0999	970.55
277.08 K, 8983.2 kPa, x1 = 0.1386	954.88
277.14 K, 5409.4 kPa, x1 = 0.1086	963.03
277.14 K, 9054.1 kPa, x1 = 0.064	979.8
277.14 K, 16926 kPa, x1 = 0.0606	986.49
277.15 K, 3335.7 kPa, x1 = 0.014	995.99
277.15 K, 4008 kPa, x1 = 0.0302	990.84
277.15 K, 5289 kPa, x1 = 0.1436	951.66
277.15 K, 7604.3 kPa, x1 = 0.0513	984.44
277.18 K, 953.2 kPa, x1 = 0.0591	975.15
277.2 K, 5773.5 kPa, x1 = 0.0644	979.4
277.21 K, 6487 kPa, x1 = 0.0955	967.76
279.08 K, 6161.2 kPa, x1 = 0.0644	979.29
279.11 K, 10157 kPa, x1 = 0.1386	954.73
279.12 K, 6995.3 kPa, x1 = 0.0999	970.36
279.12 K, 7195.5 kPa, x1 = 0.0955	967.64
279.14 K, 3259.7 kPa, x1 = 0.0582	979.2
279.15 K, 3348.5 kPa, x1 = 0.014	995.9
279.15 K, 4150.8 kPa, x1 = 0.0302	990.74
279.15 K, 6475.7 kPa, x1 = 0.1436	951.51
279.15 K, 7945.5 kPa, x1 = 0.0513	984.33
279.17 K, 9525.4 kPa, x1 = 0.064	979.68
280.14 K, 6718.7 kPa, x1 = 0.1086	962.82
281.08 K, 7983 kPa, x1 = 0.0955	967.51
281.11 K, 11383 kPa, x1 = 0.1386	954.58
281.13 K, 10065 kPa, x1 = 0.064	979.57
281.14 K, 6677.8 kPa, x1 = 0.0644	979.17
281.15 K, 3472.7 kPa, x1 = 0.014	995.8
281.15 K, 4392.5 kPa, x1 = 0.0302	990.64
281.15 K, 8371.2 kPa, x1 = 0.0513	984.22
281.19 K, 10108 kPa, x1 = 0.064	979.56
281.22 K, 1795.9 kPa, x1 = 0.0591	974.91
282.15 K, 8409.8 kPa, x1 = 0.1436	951.28
282.16 K, 8309.2 kPa, x1 = 0.0999	970.16
282.8 K, 8732.9 kPa, x1 = 0.0955	967.39
283.12 K, 4275.1 kPa, x1 = 0.0582	978.96
283.13 K, 12686 kPa, x1 = 0.1386	954.43
283.14 K, 8193.3 kPa, x1 = 0.1086	962.61
283.15 K, 3692.3 kPa, x1 = 0.014	995.7
283.15 K, 4731.8 kPa, x1 = 0.0302	990.53
283.15 K, 8198.4 kPa, x1 = 0.1086	962.61
283.15 K, 8879.5 kPa, x1 = 0.0513	984.1
283.15 K, 10706 kPa, x1 = 0.064	979.44
283.17 K, 7273.4 kPa, x1 = 0.0644	979.05
285.09 K, 7901.4 kPa, x1 = 0.0644	978.93
285.15 K, 4011.8 kPa, x1 = 0.014	995.59
285.15 K, 5171.1 kPa, x1 = 0.0302	990.41
285.15 K, 9527 kPa, x1 = 0.0513	983.98
285.15 K, 10464 kPa, x1 = 0.1436	951.05
285.15 K, 10466 kPa, x1 = 0.1436	951.05
285.16 K, 11435 kPa, x1 = 0.064	979.32
285.17 K, 2999.7 kPa, x1 = 0.0591	974.66
285.17 K, 14062 kPa, x1 = 0.1436	954.28
286.14 K, 9868.4 kPa, x1 = 0.1086	962.4
287.06 K, 10858 kPa, x1 = 0.0955	967.09
287.13 K, 5735.3 kPa, x1 = 0.0582	978.69
287.13 K, 12206 kPa, x1 = 0.064	979.19
287.15 K, 4434.3 kPa, x1 = 0.014	995.47
287.15 K, 10223 kPa, x1 = 0.0513	983.85
287.17 K, 8642.4 kPa, x1 = 0.0644	978.79
288.13 K, 11389 kPa, x1 = 0.0999	969.74
288.14 K, 11389 kPa, x1 = 0.0999	969.74
288.15 K, 12628 kPa, x1 = 0.1436	950.81
289.04 K, 4499.1 kPa, x1 = 0.0591	974.4
289.14 K, 6552.7 kPa, x1 = 0.0582	978.56
289.15 K, 4946.6 kPa, x1 = 0.014	995.35
289.15 K, 6317.7 kPa, x1 = 0.0302	990.16
289.15 K, 11020 kPa, x1 = 0.0513	983.72
289.15 K, 11640 kPa, x1 = 0.1386	962.18
289.15 K, 13114 kPa, x1 = 0.064	979.06
289.21 K, 9475.8 kPa, x1 = 0.0644	978.66
291.12 K, 10278 kPa, x1 = 0.0644	978.53
291.13 K, 7445.3 kPa, x1 = 0.0582	978.41
291.13 K, 13172 kPa, x1 = 0.0999	969.52
291.15 K, 5561.2 kPa, x1 = 0.014	995.22
291.15 K, 11884 kPa, x1 = 0.0513	983.58
291.15 K, 14080 kPa, x1 = 0.064	978.92
291.16 K, 13203 kPa, x1 = 0.0955	966.79
292.14 K, 7407.7 kPa, x1 = 0.0302	989.96
292.15 K, 7429.1 kPa, x1 = 0.0302	989.96
293.12 K, 14421 kPa, x1 = 0.0955	966.65
293.13 K, 11186 kPa, x1 = 0.0644	978.39
293.14 K, 8423.6 kPa, x1 = 0.0582	978.27
293.15 K, 6247.6 kPa, x1 = 0.014	995.09
293.16 K, 15112 kPa, x1 = 0.064	978.78
293.22 K, 6453.9 kPa, x1 = 0.0591	974.1
294.15 K, 15125 kPa, x1 = 0.0999	969.3
295.11 K, 8696.2 kPa, x1 = 0.0302	989.75
295.12 K, 9437.2 kPa, x1 = 0.0582	978.12
295.15 K, 7035 kPa, x1 = 0.014	994.95
295.15 K, 12162 kPa, x1 = 0.0644	978.25
295.15 K, 13851 kPa, x1 = 0.0513	983.31
297.15 K, 7909.9 kPa, x1 = 0.014	994.81
297.15 K, 10576 kPa, x1 = 0.0582	977.97
297.21 K, 13180 kPa, x1 = 0.0644	978.11
297.22 K, 8637.1 kPa, x1 = 0.0591	973.79
298.16 K, 10232 kPa, x1 = 0.0302	989.53
299.08 K, 11729 kPa, x1 = 0.0582	977.83
299.15 K, 8841.2 kPa, x1 = 0.014	994.66
299.19 K, 14184 kPa, x1 = 0.0644	977.97
301.02 K, 10950 kPa, x1 = 0.0591	973.5
301.11 K, 15142 kPa, x1 = 0.0644	977.84
301.15 K, 9880.3 kPa, x1 = 0.014	994.51
303.15 K, 10919 kPa, x1 = 0.014	994.37
303.2 K, 14357 kPa, x1 = 0.0582	977.51
305.11 K, 13746 kPa, x1 = 0.0591	973.17
305.15 K, 12107 kPa, x1 = 0.014	994.21
305.21 K, 15774 kPa, x1 = 0.0582	977.35
309.15 K, 14684 kPa, x1 = 0.014	993.9
